Literature values as cited in patent publication US20210386733A1, “LYSINE-SPECIFIC HISTONE DEMETHYLASE INHIBITORS FOR THE TREATMENT OF MYELOPROLIFERATIVE NEOPLASMS” (Imago Biosciences, Inc., priority 2019, published 2021).

System: primary myelofibrosis patients
Settings: 50 to 100 mg/day in combination with prednisone; cited from earlier work

## O=C1CCC(N2C(=O)c3ccccc3C2=O)C(=O)N1 (centres unmarked) [Thalidomide]
  patients with improved anemia and thrombocytopenia: approximately 60%
  patients with reduced spleen size: approximately 20%
